Assay results: patent US5593984A, “Cephalosporin derivatives” (Yuhan Corporation, priority 1992, dated 1997)
Values after ≈ are worked out from the molar mass of the structure shown.

Columns and labels:
Format in all cases: cell-based
[1] = system: B. subtilis ATCC 6633; experiment: MIC by agar dilution, B. subtilis ATCC 6633; conditions: Bacillus subtilis, ATCC6633, 17 h; B. subtilis ATCC 6633; agar dilution, Mueller-Hinton agar; read-out: Minimal Inhibitory Concentration (MIC)
In short: (§1)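 Inoculum of 10^6 CFU per ml was spotted onto Mueller-Hinton agar plates carrying two-fold compound dilutions. Plates were held at 35°-37° C. for 17±1 hours before the minimum inhibitory concentration was recorded.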

[2] = system: Staph. aureus ATCC 6538P; experiment: MIC by agar dilution, Staph. aureus ATCC 6538P; conditions: Staphylococcus aureus, ATCC6538P, 17 h; Staph. aureus ATCC 6538P; agar dilution, Mueller-Hinton agar; read-out: Minimal Inhibitory Concentration (MIC)
In short: as §1

[3] = system: Staph. aureus Smith; experiment: MIC by agar dilution, Staph. aureus Smith; conditions: Staphylococcus aureus, 17 h, Mueller-Hinton agar, read-out: Minimal Inhibitory Concentration (MIC)
In short: as §1

[4] = system: Staph. aureus C-57; experiment: MIC by agar dilution, Staph. aureus C-57; conditions: Staphylococcus aureus, C57, 17 h, Mueller-Hinton agar, read-out: Minimal Inhibitory Concentration (MIC)
In short: as §1

[5] = system: Staph. aureus C-5113; experiment: MIC by agar dilution, Staph. aureus C-5113; conditions: Staphylococcus aureus, C5113, 17 h, Mueller-Hinton agar, read-out: Minimal Inhibitory Concentration (MIC)
In short: as §1

[6] = system: Staph. aureus C-5216; experiment: MIC by agar dilution, Staph. aureus C-5216; conditions: Staphylococcus aureus, C5216, 17 h, Mueller-Hinton agar, read-out: Minimal Inhibitory Concentration (MIC)
In short: as §1

[7] = system: S. epidermidis ATCC 12228; experiment: MIC by agar dilution, S. epidermidis ATCC 12228; conditions: Staphylococcus epidermidis, ATCC12228, 17 h; S. epidermidis ATCC 12228; agar dilution, Mueller-Hinton agar; read-out: Minimal Inhibitory Concentration (MIC)
In short: as §1

[8] = system: Ent. aerogenes IFO 12979; experiment: MIC by agar dilution, Ent. aerogenes IFO 12979; conditions: Klebsiella aerogenes, IFO12979, 17 h, Mueller-Hinton agar, read-out: Minimal Inhibitory Concentration (MIC)
In short: as §1

[9] = system: Ent. cloacae IFO 13535; experiment: MIC by agar dilution, Ent. cloacae IFO 13535; conditions: Enterobacter cloacae, IFO13535, 17 h; Ent. cloacae IFO 13535; agar dilution, Mueller-Hinton agar; read-out: Minimal Inhibitory Concentration (MIC)
In short: as §1

[10] = system: E. coli NIHJ JC-2; experiment: MIC by agar dilution, E. coli NIHJ JC-2; conditions: Escherichia coli, NIHJJC2, 17 h; E. coli NIHJ JC-2; agar dilution, Mueller-Hinton agar; read-out: Minimal Inhibitory Concentration (MIC)
In short: as §1

[11] = system: E. coli No. 29; experiment: MIC by agar dilution, E. coli No. 29; conditions: Escherichia coli, 17 h; E. coli No. 29; agar dilution, Mueller-Hinton agar; read-out: Minimal Inhibitory Concentration (MIC)
In short: as §1

[12] = system: E. coli DY-1; experiment: MIC by agar dilution, E. coli DY-1; conditions: Escherichia coli, DY1, 17 h; E. coli DY-1; agar dilution, Mueller-Hinton agar; read-out: Minimal Inhibitory Concentration (MIC)
In short: as §1

[13] = system: K. pneumoniae NCTC 9632; experiment: MIC by agar dilution, K. pneumoniae NCTC 9632; conditions: Klebsiella pneumoniae, NCTC9632, 17 h; K. pneumoniae NCTC 9632; agar dilution, Mueller-Hinton agar; read-out: Minimal Inhibitory Concentration (MIC)
In short: as §1

[14] = system: M. morganii DY-1; experiment: MIC by agar dilution, M. morganii DY-1; conditions: Morganella morganii, DY1, 17 h; M. morganii DY-1; agar dilution, Mueller-Hinton agar; read-out: Minimal Inhibitory Concentration (MIC)
In short: as §1

[15] = system: Ps. aeruginosa ATCC 10145; experiment: MIC by agar dilution, Ps. aeruginosa ATCC 10145; conditions: Pseudomonas aeruginosa, ATCC10145, 17 h, Mueller-Hinton agar, read-out: Minimal Inhibitory Concentration (MIC)
In short: as §1

[16] = system: Ps. aeruginosa NCTC 10490; experiment: MIC by agar dilution, Ps. aeruginosa NCTC 10490; conditions: Pseudomonas aeruginosa, NCTC10490, 17 h, Mueller-Hinton agar, read-out: Minimal Inhibitory Concentration (MIC)
In short: as §1

[17] = system: Ps. aeruginosa DY-2; experiment: MIC by agar dilution, Ps. aeruginosa DY-2; conditions: Pseudomonas aeruginosa, DY2, 17 h; Ps. aeruginosa DY-2; agar dilution, Mueller-Hinton agar; read-out: Minimal Inhibitory Concentration (MIC)
In short: as §1

[18] = system: P. vulgaris NCTC 8313; experiment: MIC by agar dilution, P. vulgaris NCTC 8313; conditions: Proteus vulgaris, NCTC8313, 17 h; P. vulgaris NCTC 8313; agar dilution, Mueller-Hinton agar; read-out: Minimal Inhibitory Concentration (MIC)
In short: as §1

[19] = system: Prov. stuartii IFO 12930; experiment: MIC by agar dilution, Prov. stuartii IFO 12930; conditions: Providencia stuartii, IFO12930, 17 h, Mueller-Hinton agar, read-out: Minimal Inhibitory Concentration (MIC)
In short: as §1

[20] = system: Ser. marcescens IFO 12648; experiment: MIC by agar dilution, Ser. marcescens IFO 12648; conditions: Serratia marcescens, IFO12648, 17 h; Ser. marcescens IFO 12648; agar dilution, Mueller-Hinton agar; read-out: Minimal Inhibitory Concentration (MIC)
In short: as §1

SMILES	MIC [1] [µg/mL]	MIC [2] [µg/mL]	MIC [3] [µg/mL]	MIC [4] [µg/mL]	MIC [5] [µg/mL]	MIC [6] [µg/mL]	MIC [7] [µg/mL]	MIC [8] [µg/mL]	MIC [9] [µg/mL]	MIC [10] [µg/mL]	MIC [11] [µg/mL]	MIC [12] [µg/mL]	MIC [13] [µg/mL]	MIC [14] [µg/mL]	MIC [15] [µg/mL]	MIC [16] [µg/mL]	MIC [17] [µg/mL]	MIC [18] [µg/mL]	MIC [19] [µg/mL]	MIC [20] [µg/mL]
CON=C(C(=O)NC1C(=O)N2C(C(=O)[O-])=C(C[n+]3ccn4c(Cl)ccc4c3)CSC12)c1csc(N)n1 (stereo not drawn) [Ex. 11, 7-β-[(Z)-2-(2-aminothiazol-4-yl)-2-methoxyiminoacetamido]-3-(6-chloropyrrolo[1,2-a]pyrazinium-2-yl)methyl-3-cephem-4-carboxylate]	0.1 (≈ 0.182 µM)	0.2 (≈ 0.365 µM)	0.39 (≈ 0.712 µM)	12.5 (≈ 22.8 µM)	0.78 (≈ 1.42 µM)	0.78 (≈ 1.42 µM)	0.025 (≈ 0.0456 µM)	≤ 0.006	0.05 (≈ 0.0912 µM)	≤ 0.006	≤ 0.006	≤ 0.006	≤ 0.006	≤ 0.006	0.78 (≈ 1.42 µM)	0.39 (≈ 0.712 µM)	3.13 (≈ 5.71 µM)	≤ 0.006	≤ 0.006	0.012 (≈ 0.0219 µM)
CO/N=C(\C(=O)N[C@@H]1C(=O)N2C(C(=O)[O-])=C(C[n+]3cc(C(=O)O)n4cccc4c3)CS[C@H]12)c1csc(N)n1 [Ex. 39, 7-β-[(Z)-2-(2-aminothiazol-4-yl)-2-methoxyiminoacetamido]-3-(4-carboxypyrrolo[1,2-a]pyrazinium-2-yl)methyl-3-cephem-4-carboxylate]	0.2 (≈ 0.359 µM)	0.39 (≈ 0.699 µM)	1.56 (≈ 2.8 µM)	50 (≈ 89.7 µM)	1.56 (≈ 2.8 µM)	1.56 (≈ 2.8 µM)	0.05 (≈ 0.0897 µM)	≤ 0.006	0.012 (≈ 0.0215 µM)	≤ 0.006	≤ 0.006	≤ 0.006	≤ 0.006	≤ 0.006	0.78 (≈ 1.4 µM)	0.2 (≈ 0.359 µM)	6.25 (≈ 11.2 µM)	≤ 0.006	≤ 0.006	≤ 0.006
CON=C(C(=O)NC1C(=O)N2C(C(=O)[O-])=C(C[n+]3ccn4c(CO)ccc4c3)CSC12)c1csc(N)n1 (stereo not drawn) [Ex. 21, 7-β-[(Z)-2-(2-aminothiazol-4-yl)-2-methoxyiminoacetamido]-3-(6-hydroxymethylpyrrolo[1,2-a]pyrazinium-2-yl)methyl-3-cephem-4-carboxylate]	0.1 (≈ 0.184 µM)	0.2 (≈ 0.368 µM)	0.78 (≈ 1.43 µM)	50 (≈ 92 µM)	3.13 (≈ 5.76 µM)	0.78 (≈ 1.43 µM)	0.2 (≈ 0.368 µM)	≤ 0.006	0.1 (≈ 0.184 µM)	0.012 (≈ 0.0221 µM)	≤ 0.006	≤ 0.006	0.012 (≈ 0.0221 µM)	0.012 (≈ 0.0221 µM)	0.39 (≈ 0.717 µM)	0.1 (≈ 0.184 µM)	6.25 (≈ 11.5 µM)	≤ 0.006	≤ 0.006	0.012 (≈ 0.0221 µM)
CON=C(C(=O)NC1C(=O)N2C(C(=O)[O-])=C(C[n+]3ccn4c(C(C)O)ccc4c3)CSC12)c1csc(N)n1 (stereo not drawn) [Ex. 20, 7-β-[(Z)-2-(2-aminothiazol-4-yl)-2-methoxyiminoacetamido]-3-[6-(1-hydroxyethyl)pyrrolo[1,2-a]pyrazinium-2-yl]methyl-3-cephem-4-carboxylate]	0.1 (≈ 0.179 µM)	0.2 (≈ 0.359 µM)	0.78 (≈ 1.4 µM)	50 (≈ 89.7 µM)	1.56 (≈ 2.8 µM)	1.56 (≈ 2.8 µM)	0.2 (≈ 0.359 µM)	≤ 0.006	0.1 (≈ 0.179 µM)	0.025 (≈ 0.0448 µM)	≤ 0.006	≤ 0.006	0.012 (≈ 0.0215 µM)	0.012 (≈ 0.0215 µM)	0.78 (≈ 1.4 µM)	0.2 (≈ 0.359 µM)	3.13 (≈ 5.61 µM)	0.012 (≈ 0.0215 µM)	≤ 0.006	0.025 (≈ 0.0448 µM)
CON=C(C(=O)NC1C(=O)N2C(C(=O)[O-])=C(C[n+]3ccn4c(C(C)=O)ccc4c3)CSC12)c1csc(N)n1 (stereo not drawn) [Ex. 18, 7-β-[(Z)-2-(2-aminothiazol-4-yl)-2-methoxyiminoacetamido]-3-(6-acetylpyrrolo[1,2-a]pyrazinium-2-yl)methyl-3-cephem-4-carboxylate]	0.2 (≈ 0.36 µM)	0.2 (≈ 0.36 µM)	0.78 (≈ 1.4 µM)	25 (≈ 45 µM)	0.78 (≈ 1.4 µM)	1.56 (≈ 2.81 µM)	0.05 (≈ 0.09 µM)	0.012 (≈ 0.0216 µM)	0.1 (≈ 0.18 µM)	0.012 (≈ 0.0216 µM)	0.025 (≈ 0.045 µM)	0.012 (≈ 0.0216 µM)	0.025 (≈ 0.045 µM)	0.025 (≈ 0.045 µM)	1.56 (≈ 2.81 µM)	0.2 (≈ 0.36 µM)	6.25 (≈ 11.2 µM)	0.012 (≈ 0.0216 µM)	0.012 (≈ 0.0216 µM)	0.012 (≈ 0.0216 µM)
C#CCON=C(C(=O)NC1C(=O)N2C(C(=O)[O-])=C(C[n+]3ccn4cccc4c3)CSC12)c1csc(N)n1 (stereo not drawn) [Ex. 4, 7-β-[(Z)-2-(2-aminothiazol-4-yl)-2-(propyn-1-oxyimino)acetamido]-3-(pyrrolo[1,2-a]pyrazinium-2-yl)methyl-3-cephem-4-carboxylate]	0.78 (≈ 1.45 µM)	0.2 (≈ 0.372 µM)	0.39 (≈ 0.725 µM)	25 (≈ 46.5 µM)	0.39 (≈ 0.725 µM)	0.78 (≈ 1.45 µM)	0.1 (≈ 0.186 µM)	0.012 (≈ 0.0223 µM)	0.78 (≈ 1.45 µM)	0.39 (≈ 0.725 µM)	0.012 (≈ 0.0223 µM)	≤ 0.006	0.05 (≈ 0.093 µM)	0.05 (≈ 0.093 µM)	1.56 (≈ 2.9 µM)	0.78 (≈ 1.45 µM)	6.25 (≈ 11.6 µM)	0.012 (≈ 0.0223 µM)	0.05 (≈ 0.093 µM)	0.1 (≈ 0.186 µM)
